Reference: US7960391B2, “Heterocyclylethylbenzamide derivatives” (Bayer Cropscience AG, priority 2005, dated 2011)

Columns and labels:
Alternaria brassicae = assay: In vivo test on Alternaria brassicae (leaf spot of crucifers); settings: for effectiveness on Alternaria brassicae: 330 ppm, comparison compounds of WO 01/11965
Protocol: In Vivo Test on Alternaria brassicae (Leaf Spot of Crucifers)
The active ingredient tested is prepared by potter homogenisation in a concentrated suspension type formulation at 100 g/l. This suspension is then diluted with water to obtain the desired active material concentration.
Radish plants (Pernot variety) in starter cups, sown on a 50/50 peat soil-pozzolana substrate and grown at 18-20° C., are treated at the cotyledon stage by spraying with the aqueous suspension described above.
Plants, used as controls, are treated with an aqueous solution not containing the active material.
After 24 hours, the plants are contaminated by spraying them with an aqueous suspension of Alternaria brassicae spores (40,000 spores per cm^3). The spores are collected from a 12-13-day-old culture.
The contaminated radish plants are incubated for 6-7 days at about 18° C., under a humid atmosphere.
Grading is carried out 6 to 7 days after the contamination, in comparison with the control plants.

Botrytis cinerea = assay: Effectiveness on Botrytis cinerea; assay type: in vivo; settings: 330 ppm; comparison compounds of WO 01/11965
Peronospora parasitica = assay: Efficacy against Peronospora parasitica; assay type: in vivo; settings: 330 ppm; comparison compound of WO 01/11965

| Structure (SMILES) | good (at least 50%) [protection] versus control plants (Alternaria brassicae; radish plants (Pernot variety), preventive spray 24 hours before contamination, dose 500 ppm, grading 6 to 7 days after contamination) | effectiveness on Botrytis cinerea (Botrytis cinerea) | efficacy against Peronospora parasitica (Peronospora parasitica) | effectiveness on Alternaria brassicae (Alternaria brassicae) |
| --- | --- | --- | --- | --- |
| O=C(NCCc1ncc(Br)cn1)c1ccccc1C(F)(F)F [Compound A-1, N-[2-(5-bromopyrimidin-2-yl)ethyl]-2-(trifluoromethyl)benzamide] | at least 50% | – | – | – |
| O=C(Cc1cccs1)NCc1ncc(C(F)(F)F)cc1Cl [compound 101, N-{[3-chloro-5-(trifluoromethyl)-2-pyridinyl]methyl}-5-thienylacetamide] | – | no efficacy | no efficacy | poor efficacy |
| CCNC(=O)C(Cc1ncc(C(F)(F)F)cc1Cl)NC(=O)c1ccccc1 (stereo not shown) [compound 304, N-{1-ethylcarbamoyl-2-[3-chloro-5-(trifluoromethyl)-2-pyridinyl]-ethyl}-benzamide] | – | zero effectiveness | – | – |
| CCNC(=O)C(Cc1ncc(C(F)(F)F)cc1Cl)NC(=O)c1ccc(Cl)cc1 (stereo not shown) [compound 306, N-{1-ethylcarbamoyl-2-[3-chloro-5-(trifluoromethyl)-2-pyridinyl]ethyl}-4-chlorobenzamide] | – | zero effectiveness | – | – |
| CCNC(=O)C(Cc1ncc(C(F)(F)F)cc1Cl)NC(=O)c1cccc([N+](=O)[O-])c1 (stereo not shown) [compound 307, N-{1-ethylcarbamoyl-2-[3-chloro-5-(trifluoromethyl)-2-pyridinyl]ethyl}-3-nitrobenzamide] | – | zero effectiveness | – | poor effectiveness |
| CCNC(=O)C(Cc1ncc(C(F)(F)F)cc1Cl)NC(=O)c1ccccc1Br (stereo not shown) [compound 310, N-{1-ethylcarbamoyl-2-[3-chloro-5-(trifluoromethyl)-2-pyridinyl]ethyl}-2-bromobenzamide] | – | zero effectiveness | – | – |
| CNC(=O)C(Cc1ncc(C(F)(F)F)cc1Cl)NC(=O)c1ccccc1 (stereo not shown) [compound 314, N-{1-methylcarbamoyl-2-[3-chloro-5-(trifluoromethyl)-2-pyridinyl]ethyl}-benzamide] | – | zero effectiveness | – | – |
| CNC(=O)C(Cc1ncc(C(F)(F)F)cc1Cl)NC(=O)c1ccc(OC)cc1 (stereo not shown) [compound 315, N-{1-methylcarbamoyl-2-[3-chloro-5-(trifluoromethyl)-2-pyridinyl]ethyl}-4-methoxybenzamide] | – | zero effectiveness | – | – |
| CNC(=O)C(Cc1ncc(C(F)(F)F)cc1Cl)NC(=O)c1ccc(-c2ccccc2)cc1 (stereo not shown) [compound 316, N-{1-methylcarbamoyl-2-[3-chloro-5-(trifluoromethyl)-2-pyridinyl]-ethyl}-4-phenylbenzamide] | – | zero effectiveness | – | poor effectiveness |
